From the NIST ThermoML archive (doi:10.1016/j.jct.2016.01.017)
Numbers after ± are expanded uncertainties.

Test: activity coefficient (dimensionless); of the first substance listed, at infinite dilution; xn = mol fraction of the nth substance listed
Conditions: 100 kPa, Liquid, Chromatography, x1 = 0

Row | SMILES | activity coefficient (308.15 K) | activity coefficient (318.15 K) | activity coefficient (328.15 K) | activity coefficient (338.15 K) | activity coefficient (348.15 K) | activity coefficient (358.15 K) | activity coefficient (368.15 K)
1 | Cc1ccccc1C [1,2-dimethylbenzene] + CCCC[n+]1ccc(C#N)cc1.O=S(=O)([N-]S(=O)(=O)C(F)(F)F)C(F)(F)F | 1.79 ± 0.15 | 1.89 ± 0.16 | 2 ± 0.17 | 2.1 ± 0.18 | 2.21 ± 0.19 | 2.3 ± 0.2 | 2.39 ± 0.21
2 | Cc1cccc(C)c1 [1,3-dimethylbenzene] + CCCC[n+]1ccc(C#N)cc1.O=S(=O)([N-]S(=O)(=O)C(F)(F)F)C(F)(F)F | 2.13 ± 0.18 | 2.25 ± 0.19 | 2.37 ± 0.2 | 2.49 ± 0.21 | 2.6 ± 0.22 | 2.71 ± 0.23 | 2.83 ± 0.24
3 | Cc1ccc(C)cc1 [1,4-dimethylbenzene] + CCCC[n+]1ccc(C#N)cc1.O=S(=O)([N-]S(=O)(=O)C(F)(F)F)C(F)(F)F | 2.15 ± 0.19 | 2.28 ± 0.2 | 2.4 ± 0.21 | 2.52 ± 0.22 | 2.65 ± 0.23 | 2.77 ± 0.24 | 2.89 ± 0.25
4 | C1COCCO1 [1,4-dioxane] + CCCC[n+]1ccc(C#N)cc1.O=S(=O)([N-]S(=O)(=O)C(F)(F)F)C(F)(F)F | 0.419 ± 0.041 | 0.461 ± 0.044 | 0.502 ± 0.046 | 0.544 ± 0.049 | 0.587 ± 0.052 | 0.631 ± 0.055 | 0.676 ± 0.058
5 | C=CCCCCCCCC [1-decene] + CCCC[n+]1ccc(C#N)cc1.O=S(=O)([N-]S(=O)(=O)C(F)(F)F)C(F)(F)F | 59.4 ± 5.1 | 57.3 ± 5 | 55.2 ± 4.8 | 53.5 ± 4.6 | 51.8 ± 4.5 | 50.4 ± 4.4 | 49 ± 4.2
6 | C=CCCCCC [1-heptene] + CCCC[n+]1ccc(C#N)cc1.O=S(=O)([N-]S(=O)(=O)C(F)(F)F)C(F)(F)F | 21.3 ± 1.8 | 20.7 ± 1.8 | 20 ± 1.7 | 19.5 ± 1.7 | 19 ± 1.6 | 18.5 ± 1.6 | 18.1 ± 1.6
7 | C#CCCCCC [1-heptyne] + CCCC[n+]1ccc(C#N)cc1.O=S(=O)([N-]S(=O)(=O)C(F)(F)F)C(F)(F)F | 6.92 ± 0.6 | 7.02 ± 0.61 | 7.11 ± 0.61 | 7.21 ± 0.62 | 7.3 ± 0.63 | 7.39 ± 0.64 | 7.48 ± 0.65
8 | C#CCCCC [1-hexyne] + CCCC[n+]1ccc(C#N)cc1.O=S(=O)([N-]S(=O)(=O)C(F)(F)F)C(F)(F)F | 4.81 ± 0.41 | 4.91 ± 0.42 | 5.01 ± 0.43 | 5.1 ± 0.44 | 5.19 ± 0.45 | 5.28 ± 0.46 | 5.36 ± 0.46
9 | CCC[N+](=O)[O-] [1-nitropropane] + CCCC[n+]1ccc(C#N)cc1.O=S(=O)([N-]S(=O)(=O)C(F)(F)F)C(F)(F)F | 0.74 ± 0.063 | 0.768 ± 0.065 | 0.796 ± 0.067 | 0.824 ± 0.069 | 0.851 ± 0.071 | 0.877 ± 0.073 | 0.904 ± 0.075
10 | C#CCCCCCC [1-octyne] + CCCC[n+]1ccc(C#N)cc1.O=S(=O)([N-]S(=O)(=O)C(F)(F)F)C(F)(F)F | 10.1 ± 0.9 | 10.2 ± 0.9 | 10.3 ± 0.9 | 10.3 ± 0.9 | 10.4 ± 0.9 | 10.4 ± 0.9 | 10.5 ± 0.9
11 | C=CCCC [1-pentene] + CCCC[n+]1ccc(C#N)cc1.O=S(=O)([N-]S(=O)(=O)C(F)(F)F)C(F)(F)F | 11.5 ± 1 | 10.9 ± 0.9 | 10.3 ± 0.9 | 9.83 ± 0.85 | 9.41 ± 0.81 | 9.02 ± 0.78 | 8.65 ± 0.75
12 | C#CCCC [1-pentyne] + CCCC[n+]1ccc(C#N)cc1.O=S(=O)([N-]S(=O)(=O)C(F)(F)F)C(F)(F)F | 3.4 ± 0.29 | 3.48 ± 0.3 | 3.56 ± 0.31 | 3.64 ± 0.31 | 3.7 ± 0.3 | 3.77 ± 0.33 | 3.84 ± 0.33
13 | CC(C)CC(C)(C)C [2,2,4-trimethylpentane] + CCCC[n+]1ccc(C#N)cc1.O=S(=O)([N-]S(=O)(=O)C(F)(F)F)C(F)(F)F | 46.5 ± 4 | 42.9 ± 3.7 | 39.8 ± 3.4 | 37 ± 3.2 | 34.7 ± 3 | 32.5 ± 2.8 | 30.7 ± 2.7
14 | CCC(C)(C)C [2,2-dimethylbutane] + CCCC[n+]1ccc(C#N)cc1.O=S(=O)([N-]S(=O)(=O)C(F)(F)F)C(F)(F)F | 34.9 ± 3 | 31.3 ± 2.7 | 28.2 ± 2.4 | 25.6 ± 2.2 | 23.4 ± 2 | 21.4 ± 1.9 | 19.7 ± 1.7
